Assay results as given in paper PMC6906431, “Selective small molecule PARG inhibitor causes replication fork stalling and cancer cell death” (Nature Communications, 2019).

How the values were obtained:
[1] = test system: MDA-MB-231 PARG knockdown (PARG-KD) cells; assay: Cellular PARylation, anti-PAR immunoblot; assay type: cell-based, human
Procedure: Fig. 6 Selective inhibition of PARG by xanthine derivative JA2131. a Clonogenic survival assays of PC3, MDA-MB-231, and MCF-7 cells treated with PARGi. Cells were treated with either DMSO or 10 µM JA2131 for 2 h, irradiated with 3 Gy (MDA-MB-231 and MCF-7), 7 Gy (PC3) IR and grown for ~2 weeks, then colonies were fixed with methanol and stained with crystal violet. The results of three independent experiments are shown. Error bars = the standard error of the mean (SEM). b dose-response of JA2131 in MDA-MB-231 cells with and without IR. Cells were treated with designated concentrations of JA2131 for 2 h and then either left untreated or exposed to 3 Gy IR and allowed to recover for 1 h before lysis. Total protein was immunoblotted with anti-PAR antibody (upper panel), stripped and reprobed with anti-PCNA as a loading control. c MDA-MB-231 cells with stable scrambled shRNA (WT) or stable PARG shRNA, knockdown (KD), were treated with 5 μM JA2131 for 2 h, lysed and then total lysates were immunoblotted for anti-PAR (upper panel) followed by anti-PARG (upper middle panel), anti-PARP1 (lower middle panel) and anti-actin (bottom panel) antibody. […] Stable cells with scramble shRNA (control) and shPARG (PARG-KD) cells were treated with an increasing concentration of JA2131 for growth inhibitory IC50 determination. The data was normalized against 100% survival at the lowest inhibitor concentration. Error bars show the percent coefficient of variation. Equivalent concentrations of DMSO were used as a negative control. e The cytotoxicity of JA2131 along with PDD, Veliparib and Doxorubicin against MRC-5 cells. Error bars show the percent coefficient of variation. f CETSA for in-cell JA2131 target engagement. Normalized anti-PARG western blot intensities of three independent experiments were fitted as above and the estimated aggregation temperature (Tagg) is shown in the tabulated insert. Source Data are provided as a Source Data file.
Using shRNA, next, we generated a stable MDA-MB-231 PARG knockdown (PARG-KD) cell-line (Supplementary Fig. 10). We compared PARGi JA2131-induced PARylation in PARG-KD and control cells. We reasoned that PARG-KD cells would show a reduced response to a selective PARGi as the stable PARG-KD cells would have to adopt a PARG-independent survival mechanism. MDA-MB-231 control cells and PARG-KD cells were treated with JA2131, then total cell lysates were subjected to immunoblotting with anti-PAR antibody, followed by immunodetection for anti-PARG, PARP1 and Actin antibody (Fig. 6c). […] Dose-response curves comparing control and PARG-KD cells further validate the selective action of JA2131 on control cells expressing PARG, but not on the PARG-KD cells (Supplementary Fig. 12).
PC3, MDA-MB-231 cells were maintained in RPMI 1640, MCF-7 cells in Eagle’s Minimum Essential Medium (EMEM), MRC-5 cells in Eagle’s Minimum Essential Medium and Hela and U2OS cells in Dulbecco’s modified Eagle’s high glucose medium (DMEM) supplemented with 10% (vol/vol) fetal bovine serum (FBS) and 1% antibiotic/antimycotic (Lonza) in a humidified incubator with 10% CO2. All cell lines were purchased from ATCC and regularly checked for mycoplasma and cell authentication. SUM 149PT cells were cultured in F-12 Hams (Gibco) supplemented with 5% fetal bovine serum, insulin, and hydrocortisone. […] Cells were fixed with methanol (100%), stained with crystal violet and analyzed using a GelCount instrument (Oxford Optronix Ltd). […]

PARG in PC3 cells = molecular target: T1, PARG in PC3 cells (Homo sapiens, UniProt Q86W56); assay: Cellular thermal shift assay (CETSA); assay type: cell-based; details: 10 μM JA2131
T1 construct: endogenous in cells; host or cells: PC3
Procedure: CETSA was performed as described by Molina et al.[44]. Briefly, PC3 cells were treated with 10 μM JA2131 or an equivalent volume of DMSO for 2 h, washed three times with PBS and extracted for total cell lysate. Ten percent glycerol was added to the samples before subjecting to heat. […] Then, samples were centrifuged at 14,000 rpm for 20 min at 4 °C. Supernatants were carefully removed and analyzed by western blotting analysis.
Supplementary Fig. 14: Representative CETSA western blots for PARG and PCNA. PC3 cells
treated with 10 µM JA2131 or DMSO were temperature shocked as described in Materials and […]
PCNA antibody. Anti -Histone H3 was used as loading control.
(1 picture or pasted object on this page, not shown here)

T1 sequence (Q86W56 whole entry): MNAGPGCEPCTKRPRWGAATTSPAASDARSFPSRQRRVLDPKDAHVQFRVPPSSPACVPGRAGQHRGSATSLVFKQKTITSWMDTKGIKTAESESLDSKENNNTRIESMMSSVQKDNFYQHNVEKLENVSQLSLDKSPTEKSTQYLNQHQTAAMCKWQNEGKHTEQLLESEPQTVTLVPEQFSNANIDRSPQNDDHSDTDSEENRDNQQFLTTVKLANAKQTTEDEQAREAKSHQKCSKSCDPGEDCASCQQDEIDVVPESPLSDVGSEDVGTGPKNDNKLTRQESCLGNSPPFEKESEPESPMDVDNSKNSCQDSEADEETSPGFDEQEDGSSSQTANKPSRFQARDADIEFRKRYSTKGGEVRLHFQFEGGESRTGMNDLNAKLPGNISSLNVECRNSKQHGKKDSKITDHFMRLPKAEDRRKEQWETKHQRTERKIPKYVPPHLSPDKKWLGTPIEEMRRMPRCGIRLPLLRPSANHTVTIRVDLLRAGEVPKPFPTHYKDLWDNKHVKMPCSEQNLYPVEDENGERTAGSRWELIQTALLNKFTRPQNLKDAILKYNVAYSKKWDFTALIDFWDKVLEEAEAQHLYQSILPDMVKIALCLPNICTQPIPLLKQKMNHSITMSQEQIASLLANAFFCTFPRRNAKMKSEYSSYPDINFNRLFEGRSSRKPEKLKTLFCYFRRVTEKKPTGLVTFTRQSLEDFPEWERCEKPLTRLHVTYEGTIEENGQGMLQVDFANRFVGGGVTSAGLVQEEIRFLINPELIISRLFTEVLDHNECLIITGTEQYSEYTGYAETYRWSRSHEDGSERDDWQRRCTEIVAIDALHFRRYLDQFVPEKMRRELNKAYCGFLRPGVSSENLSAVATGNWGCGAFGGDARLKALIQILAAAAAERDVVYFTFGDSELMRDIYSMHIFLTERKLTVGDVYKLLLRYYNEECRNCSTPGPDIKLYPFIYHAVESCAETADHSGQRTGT

stabilization of PARG proteins in cells (PARG in PC3 cells): 9 °C
Band intensities, anti-PARG (PARG in PC3 cells; Temperature 4 °C): 100
Band intensities, anti-PARG (PARG in PC3 cells; Temperature 51 °C): 93.0607
Band intensities, anti-PARG (PARG in PC3 cells; Temperature 62 °C): 68.3696
Band intensities, anti-PARG (PARG in PC3 cells; Temperature 68 °C): 57.8125
Band intensities, anti-PARG (PARG in PC3 cells; Temperature 72 °C): 44.7308
Band intensities, anti-PARG (PARG in PC3 cells; Temperature 77 °C): 28.3012
Band intensities, anti-PARG (PARG in PC3 cells; Temperature 85 °C): 16.0619
Structure (SMILES): Cn1c(=S)c2[nH]c(SCCN3CCOCC3)nc2n(C)c1=O [JA2131]
anti-PAR western blot band, Normalized ([1]; 5 μM JA2131 2 h, Ci-DMSO = 1): 8.898
anti-PAR western blot band, Intensity inversion ([1]; 5 μM JA2131 2 h, ImageJ): 0.00723
anti-PAR western blot band, Neg. substracted ([1]; 5 μM JA2131 2 h, ImageJ): 0.001922
anti-PAR western blot band, mean int. ([1]; 5 μM JA2131 2 h, ImageJ): 138.32
PAR accumulation after treatment ([1]; 5 μM, 2 h): did not affect the level of PAR accumulation
